According to US20090012018A1, “Inhibition of pancretic cancer cell growth” (priority 2004, published 2009):
Entries after “also recorded” stand apart in the source; their conditions may differ.

Assays:
BxPC3 = test: Sensitivity of pancreatic adenocarcinoma cells to drug treatment (cell proliferation, apoptosis); format: cell-based, human
Protocol: (§1) Human pancreatic adenocarcinoma cell lines HPAC, SW1990, Mpanc-96, SU86.86, PL45, Panc10.05 Panc2.03 and Panc8.13 were obtained from ATCC; cell lines MiaPaCa2, Panc1, CFPAC-1, HPAFII, Capan-2, AsPC1, Hs766T and BxPC3 were a gift from Schering Plough; cell lines COLO357, L3.3, L3.6 pl and L3.6 sl were a gift from I. Fidler; cell lines Panc3.27, Panc4.21, Panc5.04, Panc2.13, Panc1.28 and Panc6.03 were a gift from E. Jaffee. BxPC3 and the Panc cell lines were grown in RPMI medium (Gibco) supplemented with 10% FBS, L-glutamine and penicillin/streptomycin; medium for the Panc cells was also supplemented with insulin-transferrin-selenium (Gibco). The CFPAC-1, Panc1, AsPC1, Hs766T, L3.6sl and L3.6pl were grown in DMEM without phenol red (CellGro), supplemented with 10% FBS. Derivation and culture of PDC cells was as described (Schreiber et al., Gastroenterology, 127:250-260, 2004).
(§2) The small chemical inhibitors were used at the following final concentrations: up to 250 μM for sulindac (Sigma), up to 300 μM for sulindac sulfone (Calbiochem or ICN), NS-398 up to 25 μM (Calbiochem), sodium salicylate up to 100 μM (Calbiochem). […] To test for drug sensitivity, the cells were plated in control medium or in medium containing the drug of interest for 2 to 5 days. The culture media was changed every 48 hrs. The images showing cell morphology were taken with a Nikon inverted microscope.
(§3) Cells were pulsed with 10 μM BrdU for two hours and then harvested and fixed. BrdU incorporation was detected with a fluorescein isothiocyanate conjugated anti-BrdU antibody (BD Biosciences) and total DNA was stained with 7-AAD (BD Biosciences). FACS analysis was performed according to the BD Biosciences BrdU flow kit manual. Cells in S-phase were defined as the BrdU-positive cell population with a DNA content between 2N and 4N. According to the manual, apoptotic cells were defined as a subpopulation of G0/G1 cells with DNA content lower than the diploid amount (<2N).

L3.6sl = test: as above; format: cell-based, human
Protocol: as §1, §2, §3

Panc4.21 = test: as above; format: cell-based, human
Protocol: as §1, §2, §3

CFPAC-1 tumors = test: Subcutaneous tumor treatment in nude mice; format: in vivo, CD-1 nude mice; conditions: treated for five days vs controls, sulindac 3 mg/mouse/day injected, sulindac sulfone 1.5 mg/mouse/day orally
Protocol: A total of 0.1 ml Hanks' balanced salt solution and matrigel (1:1) containing 2×10^6 cells was injected subcutaneously into CD-1 nude mice (Charles River Laboratories). Tumors were grown for 4 days to a minimum volume of 125 mm^3. Treatment was initiated simultaneously for all subjects. Mice were injected with vector alone (peanut oil: PBS 7:3 v/v) or with a sulindac solution (3 mg/mouse/day) daily for 5 days. Sulindac sulfone was administered orally (1.5 mg/mouse/day). At the end of the treatment period, tumors were excised from mice, weighed and photographed.

[1] = reduction in cell proliferation

SMILES: CC1=C(CC(=O)O)c2cc(F)ccc2/C1=C\c1ccc([S+](C)[O-])cc1 (stereo not shown) [sulindac]
- induced apoptosis (BxPC3; concentration dependent): two to four-fold
- Sulindac Sensitivity (BxPC3; [1]): Positive
- cell growth (BxPC3; vs untreated controls, FIG. 3B): strongly inhibits growth
- induced apoptosis (L3.6sl; concentration dependent): two to four-fold
- Sulindac Sensitivity (L3.6sl; [1]): Positive
- cell growth (L3.6sl; vs untreated controls, FIG. 3B): strongly inhibits growth
- induced apoptosis (Panc4.21; concentration dependent): two to four-fold
- Sulindac Sensitivity (Panc4.21; [1]): Positive
- cell growth (Panc4.21; vs untreated controls, FIG. 3B): strongly inhibits growth
- tumor growth (volume, size) (CFPAC-1 tumors): largely unaffected; also recorded: No reduction
